From ChEMBL document CHEMBL5034018, “LXR-Mediated Regulation of Marine-Derived Piericidins Aggravates High-Cholesterol Diet-Induced Cholesterol Metabolism Disorder in Mice” (J Med Chem, 2021)
Active and inactive are the calls of the source. No cut-off for these calls is given here.

Experiments:
[1] = Hepatotoxicity in renal carcinoma xenografted C57BL/6 mouse assessed as inflammatory infiltration at 0.8 mg/kg, ip by histological analysis; format: toxicity, organism-based; conditions: in vivo
[2] = Effect on bile acid homeostasis in HCD-fed C57BL/6 mouse assessed as inhibition of Cyp7a1 mRNA expression by RT-qPCR analysis; format: functional; parameters: scale not given: the % may be the effect or the level left
[3] = Hepatotoxicity in renal carcinoma xenografted C57BL/6 mouse assessed as fold increase in plasma AST at 0.8 mg/kg, ip; format: toxicity, organism-based; conditions: in vivo
[4] = Down regulation of SHP mRNA level in human HepG2 cells at 1 uM by RT-qPCR analysis; format: functional
HepG2 [5] = assay: Induction of apoptosis in human HepG2 cells assessed as late apoptotic cells at 5 uM measured after 48 hrs by Annexin-V-FITC/propidium iodide staining based flow cytometry (reference value: 0 %); format: functional
Mus musculus [6] = species on record: Mus musculus; assay: Effect on bile acid homeostasis in HCD-fed C57BL/6 mouse assessed as change in Car protein expression; format: functional
[7] = Down regulation of FXR mRNA level in human HepG2 cells at 5 uM by RT-qPCR analysis; format: functional
Mus musculus [8] = assay: Induction of histopathological changes in HCD-fed C57BL/6 mouse assessed as swelling gallbladder size at 0.8 mg/kg, ip; format: organism-based; conditions: in vivo
HepG2 [9] = assay: Induction of mitochondrial dysfunction in human HepG2 cells assessed as decrease in TNFalpha level at 1 uM after 48 hrs; format: cell-based; parameters: scale not given: the % may be the effect or the level left; conditions: hepg2, 48 h
[10] = target: T1, Oxysterols receptor LXR-alpha (Homo sapiens, UniProt Q13133); assay: Binding affinity to full-length human LXRalpha by surface plasmon resonance assay
T1 sequence (Q13133 whole entry): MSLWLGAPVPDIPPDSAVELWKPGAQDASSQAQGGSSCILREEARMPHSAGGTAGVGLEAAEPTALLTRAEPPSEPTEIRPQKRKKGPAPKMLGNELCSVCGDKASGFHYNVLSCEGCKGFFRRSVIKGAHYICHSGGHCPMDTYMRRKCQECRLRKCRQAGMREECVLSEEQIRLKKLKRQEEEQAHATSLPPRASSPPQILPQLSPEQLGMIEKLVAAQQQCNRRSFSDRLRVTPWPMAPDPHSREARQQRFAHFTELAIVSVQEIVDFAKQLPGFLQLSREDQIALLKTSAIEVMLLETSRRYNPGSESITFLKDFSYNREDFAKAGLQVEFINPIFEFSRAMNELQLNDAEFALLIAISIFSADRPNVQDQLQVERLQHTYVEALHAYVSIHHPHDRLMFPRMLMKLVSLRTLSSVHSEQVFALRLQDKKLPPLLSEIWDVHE

[11] = Toxicity in HCD-fed C57BL/6 mouse assessed as fold increase in ALT level at 0.8 mg/kg, ip; format: organism-based; conditions: in vivo
[12] = Effect on bile acid homeostasis in HCD-fed C57BL/6 mouse assessed as reversal of LXRbeta mRNA upregulation by RT-qPCR analysis; format: functional
[13] = Effect on bile acid homeostasis in HCD-fed C57BL/6 mouse assessed as reduction in Ntcp-mRNA expression by RT-qPCR analysis; format: functional; parameters: scale not given: the % may be the effect or the level left
[14] = Hepatotoxicity in renal carcinoma xenografted C57BL/6 mouse assessed as liver swelling at 0.8 mg/kg, ip; format: toxicity, organism-based; conditions: in vivo
[15] = Hepatotoxicity in renal carcinoma xenografted C57BL/6 mouse assessed as effect on body weight at 0.8 mg/kg, ip; format: toxicity, organism-based; conditions: in vivo
HepG2 [16] = assay: Induction of apoptosis in human HepG2 cells assessed as early apoptotic cells at 5 uM measured after 48 hrs by Annexin-V-FITC/propidium iodide staining based flow cytometry (reference value: 15.5 %); format: functional
[17] = Toxicity in renal carcinoma xenografted C57BL/6 mouse assessed as effect on visceral coefficient of heart at 0.8 mg/kg, ip; format: organism-based; conditions: in vivo
[18] = Hepatotoxicity in renal carcinoma xenografted C57BL/6 mouse assessed as appearance of pyknotic nucleus at 0.8 mg/kg, ip by histological analysis; format: toxicity, organism-based; conditions: in vivo
Mus musculus [19] = species on record: Mus musculus; assay: Effect on bile acid homeostasis in HCD-fed C57BL/6 mouse assessed as change in Mrp2 mRNA expression by RT-qPCR analysis; format: functional
[20] = Effect on bile acid homeostasis in HCD-fed C57BL/6 mouse assessed as decrease in Car mRNA expression by RT-qPCR analysis; format: functional; parameters: scale not given: the % may be the effect or the level left
[21] = Toxicity in renal carcinoma xenografted C57BL/6 mouse assessed as effect on visceral coefficient of kidney at 0.8 mg/kg, ip; format: organism-based; conditions: in vivo
HepG2 [22] = assay: Cytotoxicity against human HepG2 cells assessed as reduction in cell viability at < 10 uM incubated for 48 hrs by MTT assay; format: cell-based; conditions: hepg2, 48 h
Mus musculus [23] = assay: Induction of HCD-induced cholestasis in C57BL/6 mouse assessed as fold increase in plasma total bile acid level at 0.8 mg/kg, ip; format: functional
Mus musculus [24] = assay: Induction of HCD-induced cholestasis in C57BL/6 mouse assessed as fold increase in liver total cholesterol level at 0.8 mg/kg, ip; format: organism-based; conditions: in vivo
HepG2 [25] = assay: Induction of apoptosis in human HepG2 cells assessed as change in caspase 3 protein expression at 1 to 5 uM after 48 hrs; format: functional, cell-based; conditions: dose 1-5 µM
[26] = Hepatotoxicity in renal carcinoma xenografted C57BL/6 mouse assessed as white discoloration of liver at 0.8 mg/kg, ip; format: toxicity, organism-based; conditions: in vivo
[27] = Effect on bile acid homeostasis in HCD-fed C57BL/6 mouse assessed as fold increase in Mrp3 mRNA expression by RT-qPCR analysis; format: functional
HepG2 [28] = assay: Down regulation of ABCB1 protein level in human HepG2 cells at 1 to 5 uM by Western blot analysis; format: functional, cell-based; conditions: dose 1-5 µM
[29] = Drug metabolism in mouse liver assessed as PA formation at 10 mg/kg, po after 30 mins by LC-MS/MS analysis; format: ADME, organism-based; conditions: in vivo, 0.5 h
[30] = Induction of SHP mRNA level in human HepG2 cells assessed as fold increase in SHP expression at 1 uM by RT-qPCR analysis; format: functional
[31] = Induction of LDLR protein expression level in HCD-fed C57BL/6 mouse at 0.8 mg/kg, ip; format: functional
[32] = Induction of LDLR protein expression level in chow diet fed C57BL/6 mouse at 0.8 mg/kg, ip; format: functional
HepG2 [33] = assay: Down regulation of LXRalpha protein level in human HepG2 cells at 1 to 5 uM by Western blot analysis; format: functional, cell-based; conditions: dose 1-5 µM
[34] = Drug metabolism in mouse liver assessed as PA formation at 10 mg/kg, po after 180 mins by LC-MS/MS analysis; format: ADME, organism-based; conditions: in vivo, 3 h
[35] = Induction of FXR mRNA level in human HepG2 cells assessed as fold increase in FXR expression at 1 uM by RT-qPCR analysis; format: functional
HepG2 [36] = assay: Induction of mitochondrial dysfunction in human HepG2 cells assessed as decrease in ILbeta level at 5 to 10 uM after 48 hrs; format: cell-based; parameters: scale not given: the % may be the effect or the level left; conditions: hepg2, 48 h, dose 5-10 µM
HepG2 [37] = assay: Effect on LXRalpha mRNA level in human HepG2 cells at 1 to 5 uM by RT-qPCR analysis; format: functional, cell-based; conditions: dose 1-5 µM

## C/C=C(\C)[C@H](O)[C@H](C)/C=C(C)/C=C/C/C(C)=C/Cc1nc(OC)c(OC)c(O)c1C [PIERICIDIN A]
[1]
  Activity: Toxic
[2]
  Activity: 14%
[3]
  fold change (FC): 1.6
[4]
  Activity: 55%
HepG2 [5]
  Activity: 0%
Mus musculus [6]
  Activity: inactive
[7]
  Activity: 34%
Mus musculus [8]
  Activity: Toxic
HepG2 [9]
  Activity: 54%
[10]
  Kd: 3.24 µM
[11]
  fold change (FC): 3.7
[12]
  Activity: 72%
[13]
  Activity: 60%
[14]
  Activity: Non-Toxic
[15]
  Activity: Non-Toxic
HepG2 [16]
  Activity: 24.6%
[17]
  Activity: Non-Toxic
[18]
  Activity: Toxic
Mus musculus [19]
  Activity: inactive
[20]
  Activity: 50%
[21]
  Activity: Non-Toxic
HepG2 [22]
  Activity: Non-Toxic
Mus musculus [23]
  fold change (FC): 2.8
Mus musculus [24]
  fold change (FC): 2.7
HepG2 [25]
  Activity: Toxic
[26]
  Activity: Non-Toxic

## C/C=C(\C)[C@H](O[C@@H]1O[C@H](CO)[C@@H](O)[C@H](O)[C@H]1O)[C@H](C)/C=C(C)/C=C/C/C(C)=C/Cc1nc(OC)c(OC)c(O)c1C
[27]
  fold change (FC): 1.65
[1]
  Activity: Toxic
[2]
  Activity: 14%
[3]
  fold change (FC): 2.2
HepG2 [5]
  Activity: 0%
Mus musculus [6]
  Activity: inactive
Mus musculus [8]
  Activity: Toxic
HepG2 [28]
  Activity: Active
[29]
  Drug metabolism: 14.87 ng/mL
[30]
  fold change (FC): 3.6
[11]
  fold change (FC): 3.8
[31]
  fold change (FC): 1.6
[32]
  fold change (FC): 1.5
[12]
  Activity: 72%
HepG2 [33]
  Activity: Active
[13]
  Activity: 42%
[14]
  Activity: Non-Toxic
[15]
  Activity: Non-Toxic
[34]
  Drug metabolism: Metabolite_Detected
HepG2 [16]
  Activity: 35.7%
[17]
  Activity: Non-Toxic
[18]
  Activity: Toxic
Mus musculus [19]
  Activity: inactive
[20]
  Activity: 86%
[21]
  Activity: Non-Toxic
HepG2 [22]
  Activity: Non-Toxic
[35]
  fold change (FC): 3.6
Mus musculus [23]
  fold change (FC): 3.5
Mus musculus [24]
  fold change (FC): 3.8
HepG2 [36]
  Activity: 68%
HepG2 [25]
  Activity: Toxic
HepG2 [37]
  Activity: inactive
[26]
  Activity: Non-Toxic
